Test results: US20210177892A1, “PREVENTION AND TREATMENT OF INFECTIOUS DISEASE USING LOW CONCENTRATION HYPOCHLOROUS ACID SOLUTIONS” (Wonder Spray, LLC, priority 2019, published 2021)

Columns and labels:
[1] = system: Streptococcus pneumoniae ATCC 49619; experiment: Kill Time Study, Streptococcus pneumoniae; format: cell-based; settings: FIG. 3
Method: (§1) For example, FIG. 3 and FIG. 4 illustrate tables of the effect of a solution of HOCl on Streptococcus pneumoniae and Streptococcus pyogenes, respectively. The organisms in this test were prepared by inoculating the surface of about 5% Sheep blood agar plates, incubated at about 30 to 35° C. for 18 to 24 hours. Following the incubation period, the plates were washed with sterile Serological Saline Solution to harvest the microorganisms used and dilutions with Saline were made, plated on blood agar and incubated at 30 to 35° C. for 24-48 hours to determine the concentration. The inoculum level was then adjusted to […] for use as a stock suspension. Stock suspensions were well mixed and homogenized at each inoculation interval.
(§2) Positive controls were performed at initiation and completion by spread plating to enumerate inoculum levels and verify culture purity during testing and Negative controls were performed to establish sterility of media, reagents, and materials used at initiation. Neutralizer Suitability using Modified Letheen Broth (MLB) was performed concurrently with Kill Time testing to confirm the recovery of <100 CFU of the test organism in the subculture media in the presence of product. Duplicate 10 ml containers for each treated specimen or material concentration was prepared, equilibrated to 25±2° C., and 0.1 ml of inoculum is added to each container to achieve a final concentration of 10^6 cfu/ml.
(§3) Serial dilutions from each replicate were made at intervals of 15 second, 30 second, 1 minute and 5 minutes using 1 ml of the inoculated test product into 9 ml MLB from 1:10 to 1:1000000. Subsequently, 1 ml from each dilution was spread plated on 5% Sheep Blood agar plate in duplicate, incubated at 30 to 35° C. for 48 hours. After the incubation period, all plates were counted to determine the number of microorganisms, results are averaged and reported as log 10 reductions.

[2] = system: Streptococcus pyogenes ATCC 49399; experiment: Kill Time Study, Streptococcus pyogenes; format: cell-based; settings: FIG. 4
Method: as §1, §2, §3

E. coli = settings: 50 mM (2.6 ppm), within 5 minutes; cited from earlier work
f2 RNA = settings: cited from earlier work
[3] = inhalation; cited from earlier work

OCl [HOCl, Hypochlorous acid]
time in which bacteria that cause pneumonia are effectively killed [1]: less than 15 seconds | cfu/ml of Streptococcus pneumoniae after the HOCl solution was applied ([1]; after fifteen seconds): less than 10 cfu/ml | log 10 reduction for Streptococcus pneumoniae ([1]; after fifteen seconds): 6.057 log 10 | percent reduction for Streptococcus pneumoniae ([1]; after fifteen seconds): 99.99% | time in which bacteria that cause strep throat are effectively killed [2]: less than 15 seconds | cfu/ml of Streptococcus pyogenes after the HOCl solution was applied ([2]; after fifteen seconds): less than 10 cfu/ml | log 10 reduction for Streptococcus pyogenes ([2]; after fifteen seconds): 6.086 log 10 | percent reduction for Streptococcus pyogenes ([2]; after fifteen seconds): 99.99% | inhibition of DNA synthesis in E. coli (E. coli): ninety-six | inhibition of the growth of E. coli (E. coli): completely inhibited the growth | inactivation of naked f2 RNA compared with RNA in intact phage (f2 RNA): inactivated naked f2 RNA at the same rate as RNA in intact phage | adverse effects of inhaling the aerosolized form [3]: no adverse effects
